# Reference: US20240140991A1, “ANTIBIOTIC NATURAL PRODUCT ANALOGUES” (THE QUEEN'S UNIVERSITY OF BELFAST, priority 2021, published 2024)
# Positions of bridges follow the written chain, without caps; N, C: chain ends. Non-standard residues stand in square brackets, D forms with d. Residues, ends and D or L forms follow the SMILES beside them. *: point of attachment. Octanoyl(7-Me) = CC(C)CCCCCC(=O)*; dOrn = NCCC[C@@H](N)C(=O)O; Orn = NCCC[C@H](N)C(=O)O; Dap = NC[C@H](N)C(=O)O
# Tests used:
# [1] = In vivo tolerability study; set-up: species or system mice (ICR, CD1); details: subcutaneous, 3 doses at 8-h intervals, up to 40 mg/kg (total daily dose 120 mg/kg), naive mice
# Method: Animal Strain: Mice used in these studies were supplied by Charles River (Margate UK) and were specific pathogen free. The strain of mice used was ICR (also known as CD1 Mice) which is a well characterized outbred murine strain. Mice (male) were 11-15 g on receipt and were allowed to acclimatise for at least 7 days.
# Test compounds: Compound 6 (i.e. laterocidamide) was dissolved in water for injection in which it formed a clear colourless solution. Polymyxin B was dissolved in saline for injection to produce a clear colourless solution.
# Tolerability study: The tolerability of compound 6 was assessed in the same mouse strain used for the efficacy studies. […] The mice used in the tolerability study were naïve and were not immunosuppressed or infected.
# K. pneumoniae JS-123 = type: cell-based, Klebsiella pneumoniae; details: JS-123
# Method: (§1) Minimum inhibitory concentration (MIC) was determined by broth microdilution according to CLSI guidelines. Blood agar plates were inoculated with glycerol stocks of Escherichia coli ATCC 25922, E. coli ATCC 25922 MCR-1, E. coli MCR-1 (clinical isolate from Utrecht Medical Center, NL), E. coli EQAS MCR-2 (clinical isolate from Wageningen University and Research, NL), Kiebsielia pneumoniae ATCC 11228, K. pneumoniae ATCC 13883, K. pneumonia 2048 (clinical isolate from Vrije Universiteit Amsterdam Medical Center, NL), K. pneumonia JS-123 (clinical isolate from Utrecht Medical Center, NL), Acinetobacter baumannii ATCC 17961, A. baumannil ATCC 17978, A. baumannii 2018-006 (clinical isolate from Rijksinstituut voor Volksgezondheid en Milieu, NL), A. baumannii MDR (clinical isolate from Vrije Universiteit Amsterdam Medical Center, NL), Pseudomonas aeruginosa ATCC 27853, P. aeruginosa PAO1, P. aeruginosa NRZ-03961 (Reference strain from Das Nationale Referenzzentrum für gramnegative Krankenhauserreger, DE), P. aeruginosa M-120 (clinical isolate from Leiden University Medical Center, NL) and Staphylococcus aureus USA300 (clinical isolate from Texas Children's Hospitalm, USA). E. coli 25922 MCR1 was grown on LB agar supplemented with kanamycin. The inoculated agar plates were then incubated for 16 hours at 37° C. Individually grown colonies were subsequently used to inoculate 3 mL aliquots of TSB that were then incubated at 37° C. with shaking at 220 rpm. In parallel, the compounds to be assessed were serially diluted with Mueller-Hinton broth (MHB) in polypropylene 96-well plates (50 μL in each well). Once the OD600 of the bacterial suspensions reached 0.5, the bacteria were diluted with MHB (final concentration 2×10^5 CFU mL^−1) and added to the microplates containing the test compounds (50 μL to each well, final volume: 100 μL). The well-plates were sealed with an adhesive membrane and after 16 hours of incubation at 37° C. with shaking at 220 rpm the wells were visually inspected for bacterial growth. MIC values were defined as the lowest concentration of the compound that prevented visible growth of bacteria.
# HepG2 cells = assay: Cytotoxicity MTT assay; details: HepG2, 128 μg/mL, 24 h
# Method: In addition to a single vehicle control, compounds (diluted from DMSO stock) were added to each well to obtain in a final 128 μg/mL concentration (max. final DMSO concentration 0.5%) for all compounds except for oritavancin which was administered at 50 μM. Incubation was done for 24 h at 37° C., 7% CO2. After the incubation, MTT was added to each well at a final concentration of 0.40 mg/mL. The plates were then incubated for 2 h at 37° C., 7% CO2. Medium was carefully removed via suction, and purple formazan crystals were resuspended in 100 μL DMSO. Absorbance was read at 570 nm using a Clariostar plate reader. The data was then analysed with GraphPad Prism software. Technical triplicates for each condition were used, along with biological duplicates.
# E. coli ATCC 25922 = assay: Mouse thigh abscess (neutropenic thigh infection) efficacy model; type: in vivo, mice (ICR, CD1)
# Method: Efficacy study: The in vivo efficacy of compound 6 was assessed in a mouse thigh abscess model where both thighs of each mouse were infected with E. coli ATCC 25922 Immunosuppression: Mice were rendered neutropenic with subcutaneous injections of cyclophosphamide at 150 mg/kg 4 days before infection and 100 mg/kg 1 day before infection. The immunosuppression regime leads to neutropenia starting 24 h post administration of the first injection, which continues throughout the study.
# Infection: The bacterial strain used was E. coli ATCC 25922. An aliquot of a previously prepared frozen stock of the strain was thawed and diluted in sterile PBS to the desired inoculum just prior to infection. […]
# Endpoints: 1 h and 20.5 (planned 25) h post-infection, the clinical condition of all animals was assessed prior to humane euthanasia using pentobarbitone overdose, and the thighs were removed and weighed. Thigh samples were homogenized in 3 mL ice cold sterile PBS; the homogenates were quantitatively cultured onto CLED agar and incubated at 37° C. for 18-24 h before colonies were counted.
# Data analysis: The data from the culture burdens were analysed using appropriate non-parametric statistical models (Kruskal-Wallis using Conover-Inman to make all pairwise comparisons between groups) with StatsDirect software v. […]
# P. aeruginosa M-120 = type: cell-based, Pseudomonas aeruginosa; details: M-120
# Method: as §1
# [2] = test system: Escherichia coli ATCC 25922; type: cell-based; details: in vitro activity quoted in the in vivo section
# How it was run: (§2)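 Broth microdilution in MHB per CLSI; inoculum 2×10^5 CFU mL^−1 from log-phase TSB cultures at OD600 0.5. Plates incubated 16 hours at 37° C with shaking at 220 rpm. MIC is the lowest concentration preventing visible growth.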
# A. baumannii MDR = type: cell-based, Acinetobacter baumannii; details: A. baumannii MDR clinical isolate
# How it was run: as §2
smiles,measurement,setting,value
"CC[C@H](C)[C@@H]1NC(=O)[C@@H](NC(=O)[C@H](Cc2c[nH]c3ccccc23)NC(=O)[C@@H](CCCN)NC(=O)CNC(=O)[C@H](CCCN)NC(=O)[C@@H](CCCN)NC(=O)[C@@H](Cc2c[nH]c3ccccc23)NC(=O)[C@@H](Cc2ccc(O)cc2)NC(=O)[C@@H](CO)NC(=O)CCCCCC(C)C)CNC(=O)CNC(=O)CNC(=O)[C@H](CC(N)=O)NC1=O [Laterocidamide, laterocidamide] ({Octanoyl(7-Me)}-[dS][dY][dW][dOrn][Orn]G[dOrn]W[Dap]INGG; lactam 9-C)",tolerability,[1]; listed as Compound 6,good tolerability
same,tolerability,[1]; listed as compound 6,well tolerated
same,Minimum inhibitory concentration (MIC),K. pneumoniae JS-123,≤0.5 µg/mL
same,cytotoxicity / cell viability,HepG2 cells,completely non-toxic
same,cytotoxicity / cell viability,HepG2 cells; listed as compound 6,low cytotoxicity
same,reduction in bacterial load relative to the untreated group,"E. coli ATCC 25922; 40 mg/kg SC q8h, neutropenic mice, thigh burden",~5 log
same,dose response of thigh burden,"E. coli ATCC 25922; 10, 20 and 40 mg/kg SC q8h",clear dose response
same,Minimum inhibitory concentration (MIC),P. aeruginosa M-120,2 to 4 µg/mL
same,MIC values against E. coli ATCC 25922,[2],1 µg/mL
same,Minimum inhibitory concentration (MIC),A. baumannii MDR,4 µg/mL
